System: Ctenocephalides felis, Diabrotica undecimpunctata, Nephotettix cincticeps, Rhipicephalus sanguineus
Experiment: Parasiticidal and pesticidal tests, Methods A to E taken together (active in one or more of the tests, test not specified)
Type: in vivo
Settings: active = at least 90% control (A, 5 ppm or less), 90% (B, 10 ppm), 98% mortality (C, 100 ppm), 70% (D, 1000 ppm) or 70% (E, 100 ppm); test not given per compound
Experimental: The following representative test procedures, using compounds of the invention, were conducted to determine the parasiticidal and pesticidal activity of compounds of the invention.
Method A: Screening Method to Test Systemicity of Compounds Against Ctenocephalides Felis (Cat Flea)
A test container was filled with 10 adults of Ctenocephalides felis. A glass cylinder was closed on one end with parafilm and placed on top of the test container. The test compound solution was then pipetted into bovine blood and added to the glass cylinder. The treated Ctenocephalides felis were held in this artificial dog test (blood 37° C., 40-60% relative humidity; Ctenocephalides felis 20-22° C., 40-60% relative humidity) and assessment performed at 24 and 48 hours after application.
Active compounds gave at least 90% control of Ctenocephalides felis at a test concentration of 5 ppm or less.
Method B: Diabrotica Undecimpunctata (Southern Corn Rootworm) Screen
Two days before application, seeds of maize were soaked in water under warm conditions to elicit fast germination. One day before application, eggs of Diabrotica undecimpunctata were transferred to one half of a Japanese filter paper placed in a plastic petri dish. Afterwards, a sprouted maize seed was placed on a moistened pad beside the filter paper. Three drops of 200 microlitres of test compound solution were carefully pipetted onto the egg. The remainder of the solution was placed on the maize and then the Petri dish was closed. The treated eggs in the Petri dishes were held in a climate chamber for 6 days. The compound efficacy (percentage of dead eggs and/or larvae in comparison to untreated control) was assessed 6 days after application using a binocular microscope. […]
The leaves of 12 rice plants having a stem length of 8 cm were dipped for 5 seconds into an aqueous solution of the formulated test compound. […] After 6 days storage, the percentage mortality of leafhopper larvae was determined. […]
Solutions of the test compounds were dropped onto filter paper, dried and the filter paper placed into test tubes and infested with 10 adults of Ctenocephalides felis. The treated Ctenocephalides felis were held in a climate chamber (26° C., 80% RH) and the percentage efficacy assessed 24 hours and 48 hours after application in comparison with the untreated control. […]
Solutions of the test compounds were dropped onto filter paper, dried and the filter paper placed into test tubes and infested with 20-30 larvae (L1) of Rhipicephalus sanguineus and the tubes closed with a clip. The treated Rhipicephalus sanguineus were held in a climate chamber (25° C., 90% RH) and the percentage efficacy assessed 24 hours after application in comparison with the untreated control. […]

SMILES	active in one or more of the above tests
CNc1c(S(=O)(=O)C(F)(F)F)c(C(=N)N(C)OCc2ccc(C(F)(F)F)cc2)nn1-c1c(Cl)cc(C(F)(F)F)cc1Cl [Compound 4-128, 1-(2,6-Dichloro-4-trifluoromethylphenyl)-3-[N-methyl-N-(4-trifluoromethylbenzyloxy)-2-amidino]-5-methylamino-4-trifluoromethylsulfonylpyrazole]	active
CNc1c([S+]([O-])C(F)(F)F)c(C(=N)N(C)OCc2ccc(C(F)(F)F)cc2)nn1-c1c(Cl)cc(C(F)(F)F)cc1Cl (stereo not shown) [Compound 4-93, 1-(2,6-Dichloro-4-trifluoromethylphenyl)-3-[N-methyl-N-(4-trifluoromethylbenzyloxy)-2-amidino]-5-methylamino-4-trifluoromethylsulfinylpyrazole]	active
CNc1c([S+]([O-])C(F)(F)F)c(C(=N)N(C)OCc2c(Cl)cccc2Cl)nn1-c1c(Cl)cc(C(F)(F)F)cc1Cl (stereo not shown) [Compound 4-82, 1-(2,6-Dichloro-4-trifluoromethylphenyl)-3-[N-(2,6-dichlorobenzyloxy)-N-methyl-2-amidino]-5-methylamino-4-trifluoromethylsulfinylpyrazole]	active
CNc1c(S(=O)(=O)C(F)(F)F)c(C(N)=NOCc2ccccc2)nn1-c1c(Cl)cc(C(F)(F)F)cc1Cl [Compound 1-49, 1-(2,6-Dichloro-4-trifluoromethylphenyl)-3-(N-benzyloxy-2-amidino)-5-methylamino-4-trifluoromethylsulfonylpyrazole]	active
